Assay results published in patent publication US10912767B2, “Anthracycline prodrugs and methods of making and using the same” (THE REGENTS OF THE UNIVERSITY OF COLORADO, priority 2015, dated 2021).

Key:
[1] = Photolysis timecourses, near UV blacklight 350 nm, HPLC; type: physicochemical
Source text: In order to investigate the photolysis of the drugs in a system amenable to cell culture use, a custom UV irradiation apparatus was constructed, consisting of 3 small blacklight fluorescent bulbs (Southern New England Ultraviolet Co., λmax=350 nm) set between two ring stands and suspended at a height of 11.5 cm. The bulbs' housing was reflective aluminum so as to direct as much UV irradiation as possible downward toward the plate. Upon installation in sterile cell culture hood, the power of the system was measured at approximately 6-7 mW using a Scientech laser power meter. Prior to experimentation, the hood and irradiation apparatus was sterilized with 254 nm germicidal UV irradiation overnight. Using this setup, 100 μM of 4,5-dimethoxy-2-nitrobenyl alcohol (DMNA), photodoxazolidine R═H, and glucose-PEG-photodoxazoldine were irradiated in individual wells of a 24-well plate. Initially, 50 μL of a DMSO stock was diluted with 950 μL of PBS and aliquots of 50 μL were removed at various times (0-180 min), mixing by pipetting each time. The timepoints were analyzed by HPLC (method 2) and plotted as fractional conversion versus time. […] Therefore, a second experiment was performed in which the PBS was replaced with 1:1 acetonitrile:water. With this system of 5% DMSO/47.5% acetonitrile/47.5% water, no visible precipitation was produced over the course of the reaction.
The measured quantum yield of 0.002 for photodoxazolidine R═H (above) was lower than expected, which raised the possibility that the presence of the anthraquinone ring complex in the prodrugs was inhibiting photocleavage by quenching the activated state. To test whether this, the irradiation kinetics of DMNA (4, 5-dimethoxy-2-nitrobenzyl alcohol) was compared against photodoxazolidine R═H, which contains the DMNA unit as the photoactivating group. Additionally, glucose-PEG-photodoxazoldine was included for comparison; a synthetic precursor to this compound, azido-PEG-photodoxazolidine, is suspected of having a quantum yield of 0.01-0.02, which is 5-10-fold larger than photodoxazolidine. Irradiation was performed in 24-well cell culture dishes using the cell culture irradiation system described above with the soft-glass high-pass filter. […] In both cases, photodoxazolidine was the slowest to produce dox from the irradiation. In line with its quantum yield, glucose-PEG-photodoxazolidine reacted 4-5-fold faster than photodoxazolidine. However, DMNA was by far the fastest to undergo photochemistry in this system, converting to product approximately 30-fold faster than photodoxazolidine.

[2] = Quantum yield of photocleavage, He-Cd laser 325 nm, HPLC; type: physicochemical; conditions: 325 nm
Experimental: Initially, measurement of the quantum yield of photodoxazolidine R═H was done in a fully-absorbing solution of photoactive drug in a solution of 90% dimethylacetamide (DMA), 10% water in a 1×1 cm quartz cuvette equipped with a small magnetic stir bar. A stock of photodoxazolidine in DMA was diluted in 9:1 DMA:H2O to a final concentration of 373 μM in a final volume of 3.380 mL. […] The cuvette was placed into the path of an Omnichrome He-Cd laser (single-window power: 10.75 mW at 325 nm using a Scientech laser power meter). The solution was mixed by the stir bar, which was agitated with a magnetic stir plate placed vertically next to the cuvette. Aliquots of 20 μL were removed at times between 0 and 62 min of irradiation and those aliquots were analyzed by HPLC (method 2) for the ratio of dox to photodoxazolidine. The quantum yield was calculated from the ratio of molecules of doxorubicin (dox) formed to photons absorbed.
To allow for better comparison between the quantum yield of photocleavage of photodoxazolidine with the quantum yield for azido-PEG-photodoxazolidine, the measurement was retaken with 50% acetonitrile in water as a solvent. […] Photodoxazolidine (in DMF) was diluted with 30 mL of 50% acetonitrile to a final concentration of 104 μM. The solution was confirmed to be fully absorbing by monitoring the laser power exiting the cell throughout the course of the experiment, which never deviated from 0 mW. As above, the contents of the cell were mixed with a small magnetic stir bar. Aliquots of 50 μL were removed at various times and analyzed as described above. The calculated quantum yield in this solvent system was identical to that measured from the […] system used above.
Concentration of azido-PEG-photodoxazolidine was determined via absorbance (λ=480 nm, ε=11500 M^−1 cm^−1). A sample ([…]) was dissolved in 1 mL of ACN and transferred to a cuvette. A 12.4 mW Omnichrome HeCd was used to irradiate the solution for 30 min at 325 nm. Aliquots of 10 μL were collected at different times and analyzed by HPLC to determine the % Dox in relation to that of azido-PEG-photodoxazolidine. In calculating quantum yield: power (without cuvette)=12.4 mW, (with cuvette)=10.7 mW, incident light=11.55 mW; energy=0.462 J, 7.55×1017 photons; t=40 sec when % Dox=9.2. Experiments were performed in triplicate.
Azido-PEG-photodoxazolidine was irradiated with a 12.4 mW monochromatic laser at 325 nm for 30 min. Aliquots were collected throughout to determine the amount of azido-PEG-photodoxazolidine in relation to released doxorubicin, which was quantified by HPLC. […] The average of triplicate quantum yield experiments was 0.025. This value is in the low end of the quantum yield range, yet is beneficial because it signifies that UV must be applied for longer durations prior to release of the cytotoxic agent. This makes administration of this photo-activated prodrug safer, and its synthesis more practical.

[3] = test system: MDA-MB-231 breast carcinoma cells; test: Tumor cell uptake by flow cytometry; type: cell-based, human; conditions: 500 nM, 30 min to 4 h, compared against doxorubicin
Experimental: Uptake of the drugs by the cells was measured by flow cytometry. The cells were incubated with 500 nM photodoxazolidine R═H, azido-PEG-photodoxazolidine, or doxorubicin dissolved in 1:1 PBS:serum-free media for between 30 min and 4 h, after which the drug was removed and the cells washed with cold PBS. Cells were trypsinized to a single-cell suspension, rinsed again in cold PBS, and stored on ice for analysis by flow cytometry, monitoring the presence of the anthraquinone fluorophore (channel FL2). Cell populations were gated for intact cells in the side-scatter/forward-scatter plot and 10,000 gated events were scored for each timepoint. The mean fluorescence of the population was compared to the mean fluorescence of 10,000 gated events for an untreated population and the fold increase over background was plotted versus time of drug incubation.
Using MDA-MB-231 breast carcinoma cells, the cellular uptake of photodoxazolidine and azido-PEG-photodoxazolidine was analyzed by flow cytometry and compared against the uptake of doxorubicin.

[4] = Solubility observed in irradiation solvent; type: physicochemical
Source text: In order to investigate the photolysis of the drugs in a system amenable to cell culture use, a custom UV irradiation apparatus was constructed, consisting of 3 small blacklight fluorescent bulbs (Southern New England Ultraviolet Co., λmax=350 nm) set between two ring stands and suspended at a height of 11.5 cm. The bulbs' housing was reflective aluminum so as to direct as much UV irradiation as possible downward toward the plate. Upon installation in sterile cell culture hood, the power of the system was measured at approximately 6-7 mW using a Scientech laser power meter. Prior to experimentation, the hood and irradiation apparatus was sterilized with 254 nm germicidal UV irradiation overnight. Using this setup, 100 μM of 4,5-dimethoxy-2-nitrobenyl alcohol (DMNA), photodoxazolidine R═H, and glucose-PEG-photodoxazoldine were irradiated in individual wells of a 24-well plate. Initially, 50 μL of a DMSO stock was diluted with 950 μL of PBS and aliquots of 50 μL were removed at various times (0-180 min), mixing by pipetting each time. The timepoints were analyzed by HPLC (method 2) and plotted as fractional conversion versus time. […]
The measured quantum yield of 0.002 for photodoxazolidine R═H (above) was lower than expected, which raised the possibility that the presence of the anthraquinone ring complex in the prodrugs was inhibiting photocleavage by quenching the activated state. […]

SMILES: COc1cc(COC(=O)N2COC3C(C)OC(OC4CC(O)(C(=O)CO)Cc5c(O)c6c(c(O)c54)C(=O)c4c(OC)cccc4C6=O)CC32)c([N+](=O)[O-])cc1OC (centres unmarked) [Photodoxazolidine]
- k in ACN: H2O, relative rate constant for photocleavage ([1]; 100 μM, 1:1 acetonitrile:water, near UV 350 nm): 0.0069 min⁻¹
- k in PBS, relative rate constant for photocleavage ([1]; 100 μM, PBS, near UV 350 nm): 0.0026 min⁻¹
- k in ACN: H2O, fold over photodoxazolidine ([1]; 1:1 acetonitrile:water): (1.0)
- k in PBS, fold over photodoxazolidine ([1]; PBS): (1.0)
- quantum yield ([2]; 50% acetonitrile in water, vs first solvent system): identical
- quantum yield ([2]; 90% dimethylacetamide, 10% water): 0.002
- cellular uptake (cellular fluorescence) [3]: rapid increase in cellular fluorescence
- solubility in PBS [4]: poor solubility
